# Reference: patent US9855230B2 (ViiV Healthcare UK (No. 5) Limited, priority 2014, dated 2018)
# Where a name gives a salt, the structure may show the parent alone. Read-outs that look alike come from different tables or passages of the source.
# Tests used:
# [1] = Compound cytotoxicity (CC50), XTT-based colorimetric assay; type: cell-based; settings: human; uninfected MT2 cells, day 4, XTT assay
# Method: Compound cytotoxicity and the corresponding CC50 values were determined using the same protocol as described in the antiviral assay except that uninfected cells were used. Cytotoxicity was assessed on day 4 in uninfected MT2 cells by using a XTT (2,3-bis[2-Methoxy-4-nitro-5-sulfophenyl]-2H-tetrazolium-5-carboxyanilide inner salt)-based colorimetric assay (Sigma-Aldrich, St Louis, Mo.).
# [2] = test system: recombinant NL4-3 virus (nef section replaced with Renilla luciferase gene) in MT-2 cells; test: whole plant or invertebrate; type: cell-based, HIV; settings: NL43, luciferase activity in MT-2 cells infected 4-5 days with recombinant NL4-3 virus
# Text: A recombinant NL4-3 proviral clone, in which a section of the nef gene was replaced with the Renilla luciferase gene, was used to make the reference virus used in these studies.
# Supernatent was harvested after 2-3 days and the amount of virus present was titered in MT-2 cells using luciferase enzyme activity as a marker by measuring luciferase enzyme activity. Luciferase was quantitated using the EnduRen Live Cell Substrate from Promega (Madison, Wis.). Antiviral activities of compounds toward the recombinant virus were quantified by measuring luciferase activity in MT-2 cells infected for 4-5 days with the recombinant virus in the presence of serial dilutions of the compound.
smiles,measurement,setting,value
"Cc1ccccc1S(=O)(=O)NC(=O)N[C@@H](Cc1ccccc1)c1nccn1-c1ccc(OC(F)(F)F)cc1 [Example 11, (S)-2-methyl-N-((2-phenyl-1-(1-(4-(trifluoromethoxy)phenyl)-1H-imidazol-2-yl)ethyl)carbamoyl)benzenesulfonamide]",CC50 at 4 day,[1],59000 nM
same,EC50,[2]; read-out: Activity,< 100 nM
COc1c(F)cc(F)cc1-c1cccnc1[C@H](Cc1cc(F)cc(F)c1)NC(=O)NS(=O)(=O)c1ccccc1C [Example 134],CC50 at 4 day,[1],> 50000 nM
same,EC50,[2]; read-out: Activity,> 1000 nM
"O=C(NC(Cc1cc(F)cc(F)c1)c1ncccc1Br)NS(=O)(=O)c1ccccc1Cl (stereo in doubt) [Example 113, (S)-N-((1-(3-bromopyridin-2-yl)-2-(3,5-difluorophenyl)ethyl)carbamoyl)-2-chlorobenzenesulfonamide, TFA]",CC50 at 4 day,[1],> 100000 nM
same,EC50,[2]; read-out: Activity,> 1000 nM
"Cc1ccccc1S(=O)(=O)NC(=O)N[C@H](Cc1ccccc1)c1ncccc1Br [Example 112, (R)-N-((1-(3-bromopyridin-2-yl)-2-phenylethyl)carbamoyl)-2-methylbenzenesulfonamide, TFA]",CC50 at 4 day,[1],> 100000 nM
same,EC50,[2]; read-out: Activity,> 1000 nM
"Cc1ccccc1S(=O)(=O)NC(=O)N[C@@H](Cc1ccccc1)c1nccn1-c1ccc(-c2cnn(C)c2)cc1 [Example 61, (S)-2-methyl-N-((1-(1-(4-(1-methyl-1H-pyrazol-4-yl)phenyl)-1H-imidazol-2-yl)-2-phenylethyl)carbamoyl)benzenesulfonamide]",CC50 at 4 day,[1],> 33000 nM
same,EC50,[2]; read-out: Activity,< 100 nM
"COc1ccc(-c2c(C(Cc3ccccc3)NC(=O)NS(=O)(=O)c3ccccc3C)nnn2C)cc1 (racemic) [Example 87, (rac)-N-((1-(5-(4-methoxyphenyl)-1-methyl-1H-1,2,3-triazol-4-yl)-2-phenylethyl)carbamoyl)-2-methylbenzenesulfonamide]",CC50 at 4 day,[1],> 100000 nM
same,EC50,[2]; read-out: Activity,100 to 1000 nM
same,EC50,[2]; read-out: EC50,220 nM
"Cc1ccccc1S(=O)(=O)NC(=O)N[C@@H](Cc1cc(F)cc(F)c1)c1ncccc1-c1ccc(CN2CCOCC2)s1 [Example 122, (S)-N-((2-(3,5-difluorophenyl)-1-(3-(5-(morpholinomethyl)thiophen-2-yl)pyridin-2-yl)ethyl)carbamoyl)-2-methylbenzenesulfonamide, 2 TFA]",CC50 at 4 day,[1],> 100000 nM
same,EC50,[2]; read-out: Activity,100 to 1000 nM
"COC(=O)Nc1ccc(-n2ccnc2[C@H](Cc2ccccc2)NC(=O)NS(=O)(=O)C2CC2)cc1 [Example 53, (S)-methyl (4-(2-(1-(3-(cyclopropylsulfonyl)ureido)-2-phenylethyl)-1H-imidazol-1-yl)phenyl)carbamate]",CC50 at 4 day,[1],> 100000 nM
same,EC50,[2]; read-out: Activity,100 to 1000 nM
"COc1ccccc1-n1ccnc1[C@H](Cc1ccccc1)NC(=O)NS(=O)(=O)c1ccccc1C [Example 16, (S)-N-((1-(1-(2-methoxyphenyl)-1H-imidazol-2-yl)-2-phenylethyl)carbamoyl)-2-methylbenzenesulfonamide]",CC50 at 4 day,[1],> 100000 nM
same,EC50,[2]; read-out: Activity,> 1000 nM
"O=C(N[C@H](Cc1cc(F)cc(F)c1)c1ncccc1-c1cccc(C(=O)NC2CC2)c1)NS(=O)(=O)c1ccccc1Cl [Example 106, (R)-3-(2-(1-(3-((2-chlorophenyl)sulfonyl)ureido)-2-(3,5-difluorophenyl)ethyl)pyridin-3-yl)-N-cyclopropylbenzamide, TFA]",CC50 at 4 day,[1],> 100000 nM
same,EC50,[2]; read-out: Activity,> 1000 nM
"COc1ccc(-n2ccnc2[C@H](Cc2ccccc2)NC(=O)NS(=O)(=O)c2ccccc2C)cc1OC [Example 10, (S)-N-((1-(1-(3,4-dimethoxyphenyl)-1H-imidazol-2-yl)-2-phenylethyl)carbamoyl)-2-methylbenzenesulfonamide]",CC50 at 4 day,[1],> 100000 nM
same,EC50,[2]; read-out: Activity,< 100 nM
"CCOc1ccc(-n2ccnc2[C@H](Cc2ccccc2)NC(=O)NS(=O)(=O)c2ccccc2C)cc1 [Example 7, (S)-N-((1-(1-(4-ethoxyphenyl)-1H-imidazol-2-yl)-2-phenylethyl)carbamoyl)-2-methylbenzenesulfonamide]",CC50 at 4 day,[1],> 100000 nM
same,EC50,[2]; read-out: Activity,< 100 nM
"CCOc1ccc(-c2cccnc2[C@H](Cc2ccccc2)NC(=O)NS(=O)(=O)c2ccccc2C)cc1 [Example 88, (S)-N-((1-(3-(4-ethoxyphenyl)pyridin-2-yl)-2-phenylethyl)carbamoyl)-2-methylbenzenesulfonamide]",CC50 at 4 day,[1],> 100000 nM
same,EC50,[2]; read-out: Activity,100 to 1000 nM
"Cc1ccccc1S(=O)(=O)NC(=O)N[C@@H](Cc1cc(F)cc(F)c1)c1ncccc1-c1ccc(F)c(C(=O)O)c1 [Example 131, (S)-5-(2-(2-(3,5-difluorophenyl)-1-(3-(o-tolylsulfonyl)ureido)ethyl)pyridin-3-yl)-2-fluorobenzoic Acid, TFA]",CC50 at 4 day,[1],> 100000 nM
same,EC50,[2]; read-out: Activity,> 1000 nM
"O=C(N[C@@H](Cc1ccccc1)c1nccn1-c1ccc2occc2c1)NS(=O)(=O)c1ccccc1F [Example 78, (S)-N-((1-(1-(benzofuran-5-yl)-1H-imidazol-2-yl)-2-phenylethyl)carbamoyl)-2-fluorobenzenesulfonamide]",CC50 at 4 day,[1],> 100000 nM
same,EC50,[2]; read-out: Activity,< 100 nM
same,EC50,[2]; read-out: EC50,20 nM
"Cc1ccccc1S(=O)(=O)NC(=O)N[C@@H](Cc1cc(F)cc(F)c1)c1ncccc1-c1ccc(CN(C)C)cc1 [Example 120, (S)-N-((2-(3,5-difluorophenyl)-1-(3-(4-((dimethylamino)methyl)phenyl)pyridin-2-yl)ethyl)carbamoyl)-2-methylbenzenesulfonamide, TFA]",CC50 at 4 day,[1],> 100000 nM
same,EC50,[2]; read-out: Activity,100 to 1000 nM
same,EC50,[2]; read-out: EC50,360 nM
"O=C(NC(Cc1ccccc1)c1ncccc1-c1ccc2ccncc2c1)NS(=O)(=O)c1ccccc1Cl (stereo in doubt) [Example 108, (S)-2-chloro-N-((1-(3-(isoquinolin-7-yl)pyridin-2-yl)-2-phenylethyl)carbamoyl)benzenesulfonamide, 2 TFA]",CC50 at 4 day,[1],> 100000 nM
same,EC50,[2]; read-out: Activity,> 1000 nM
same,EC50,[2]; read-out: EC50,20000 nM
"COC(=O)Nc1ccc(-n2ccnc2[C@H](Cc2ccccc2)NC(=O)NS(=O)(=O)c2ccc(C)cc2)cc1 [Example 38, (S)-methyl (4-(2-(2-phenyl-1-(3-tosylureido)ethyl)-1H-imidazol-1-yl)phenyl)carbamate]",CC50 at 4 day,[1],> 100000 nM
same,EC50,[2]; read-out: Activity,100 to 1000 nM
"Cc1ccccc1S(=O)(=O)NC(=O)N[C@@H](Cc1ccccc1)c1nccn1-c1cccc(OC(F)(F)F)c1 [Example 19, (S)-2-methyl-N-((2-phenyl-1-(1-(3-(trifluoromethoxy)phenyl)-1H-imidazol-2-yl)ethyl)carbamoyl)benzenesulfonamide]",CC50 at 4 day,[1],> 33000 nM
same,EC50,[2]; read-out: Activity,100 to 1000 nM
"CC(=O)Nc1ccc(-n2ccnc2[C@H](Cc2ccccc2)NC(=O)NS(=O)(=O)c2ccccc2C)cc1 [Example 35, (S)-N-(4-(2-(2-phenyl-1-(3-(o-tolylsulfonyl)ureido)ethyl)-1H-imidazol-1-yl)phenyl)acetamide]",CC50 at 4 day,[1],> 33000 nM
same,EC50,[2]; read-out: Activity,100 to 1000 nM
"Cc1ccccc1S(=O)(=O)NC(=O)N[C@@H](Cc1ccccc1)c1nccn1-c1cccc(N2CCCC2)c1 [Example 68, (S)-2-methyl-N-((2-phenyl-1-(1-(3-(pyrrolidin-1-yl)phenyl)-1H-imidazol-2-yl)ethyl)carbamoyl)benzenesulfonamide]",CC50 at 4 day,[1],> 100000 nM
same,EC50,[2]; read-out: Activity,100 to 1000 nM
"NC(=O)c1cc(-c2cccnc2[C@H](Cc2cc(F)cc(F)c2)NC(=O)NS(=O)(=O)c2ccccc2Cl)ccc1F [Example 95, (S)-5-(2-(1-(3-((2-chlorophenyl)sulfonyl)ureido)-2-(3,5-difluorophenyl)ethyl)pyridin-3-yl)-2-fluorobenzamide, TFA]",CC50 at 4 day,[1],> 100000 nM
same,EC50,[2]; read-out: Activity,100 to 1000 nM
"Cc1ccccc1S(=O)(=O)NC(=O)N[C@@H](Cc1ccccc1)c1nccn1-c1ccc2scnc2c1 [Example 70, (S)-N-((1-(1-(benzo[d]thiazol-5-yl)-1H-imidazol-2-yl)-2-phenylethyl)carbamoyl)-2-methylbenzenesulfonamide]",CC50 at 4 day,[1],> 100000 nM
same,EC50,[2]; read-out: Activity,< 100 nM
"Cc1cccc(-n2ccnc2[C@H](Cc2ccccc2)NC(=O)NS(=O)(=O)c2ccccc2C)c1 [Example 23, (S)-2-methyl-N-((2-phenyl-1-(1-(m-tolyl)-1H-imidazol-2-yl)ethyl)carbamoyl)benzenesulfonamide]",CC50 at 4 day,[1],> 100000 nM
same,EC50,[2]; read-out: Activity,< 100 nM
"C=CCOc1cccc(-n2ccnc2[C@H](Cc2ccccc2)NC(=O)NS(=O)(=O)c2ccccc2C)c1 [Example 17, (S)-N-((1-(1-(3-(allyloxy)phenyl)-1H-imidazol-2-yl)-2-phenylethyl)carbamoyl)-2-methylbenzenesulfonamide]",CC50 at 4 day,[1],> 33000 nM
same,EC50,[2]; read-out: Activity,100 to 1000 nM
"O=C(N[C@H](Cc1cc(F)cc(F)c1)c1ncccc1-c1cncc(F)c1)NS(=O)(=O)c1ccccc1Cl [Example 110, (R)-2-chloro-N-((2-(3,5-difluorophenyl)-1-(5′-fluoro-[3,3′-bipyridin]-2-yl)ethyl)carbamoyl)benzenesulfonamide, TFA]",CC50 at 4 day,[1],> 33000 nM
same,EC50,[2]; read-out: Activity,> 1000 nM
"CCOc1ccc(-n2ccnc2[C@H](Cc2ccccc2)NC(=O)NS(=O)(=O)c2ccccc2C)cc1Cl [Example 26, (S)-N-((1-(1-(3-chloro-4-ethoxyphenyl)-1H-imidazol-2-yl)-2-phenylethyl)carbamoyl)-2-methylbenzenesulfonamide]",CC50 at 4 day,[1],> 100000 nM
same,EC50,[2]; read-out: Activity,< 100 nM
"O=C(N[C@@H](Cc1ccccc1)c1nccn1-c1ccc2c(c1)CCO2)NS(=O)(=O)c1ccccc1F [Example 75, (S)-N-((1-(1-(2,3-dihydrobenzofuran-5-yl)-1H-imidazol-2-yl)-2-phenylethyl)carbamoyl)-2-fluorobenzenesulfonamide]",CC50 at 4 day,[1],> 100000 nM
same,EC50,[2]; read-out: Activity,< 100 nM
same,EC50,[2]; read-out: EC50,20 nM
